Experimental data as given in patent US9309201B2, “Process for preparating ivabradine hydrochloride form IV and methods of treatment of disease using ivabradine hydrochloride form IV” (URQUIMA, S.A., priority 2011, dated 2016).
Where a name gives a salt, the structure may show the parent alone.

Test: Check for transformation of crystalline Form IV after tablet manufacture
Type: physicochemical
Experimental: All the components, with the exception of magnesium stearate and silica colloidal anhydrous, were mixed. Finally, silica colloidal anhydrous and magnesium stearate were added and mixed. The blend was compressed in an excentric tabletting machine.
All the components with the exception of magnesium stearate and silica colloidal anhydrous were mixed and granulated using ethanol as a granulating solvent. Then a wet calibration of the granules was performed. The obtained granules were dried followed by a dry calibration of the granules. Thereafter, silica colloidal anhydrous and magnesium stearate were added and mixed. The lubricated granulate was compressed in an eccentric tabletting machine.
Finally, tablets were coated using conventional coating agents until a weight increase of approximately 3%.

transformation of the crystalline Form IV in tablets (Example 26 tablets, blend compressed directly in an excentric tabletting machine): absence of any transformation | transformation of the crystalline Form IV in film-coated tablets (Example 27 tablets, wet granulation with ethanol, drying, compression, coating to approximately 3% weight increase): absence of any transformation
Compound: COc1cc2c(cc1OC)CC(=O)N(CCCN(C)C[C@H]1Cc3cc(OC)c(OC)cc31)CC2 [Form IV of ivabradine hydrochloride, ivabradine hydrochloride]
